From the supplement of paper PMC13207355

Assays:
Conditions in all cases: exposure time: 72 h
FT3469 [1] = normal neural stem cell line; test: surviving fraction (nuclei count normalised to DMSO); higher = more cells surviving (less toxic)
E57 [2] = patient-derived glioblastoma stem cells of mesenchymal subtype; test: as above
E21 [3] = patient-derived glioblastoma stem cells of mesenchymal subtype; test: as above
E31 [4] = patient-derived glioblastoma stem cells of proneural subtype; test: as above
E13 [5] = patient-derived glioblastoma stem cells of classical subtype; test: as above
E34 [6] = patient-derived glioblastoma stem cells of proneural subtype; test: as above
E28 [7] = patient-derived glioblastoma stem cells of classical subtype; test: as above
FT3469 [8] = test: phenotypic distance (Euclidean, principal components) from DMSO controls (arbitrary units); higher = stronger morphological change
E57 [9] = test: as above
E21 [10] = test: as above
E31 [11] = test: as above
E13 [12] = test: as above
E34 [13] = test: as above
E28 [14] = test: as above
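Wherever phenotypic distance (Euclidean, principal components) from DMSO controls is given: cell Painting imaging in 384-well plates, CellProfiler features reduced to at least 20 principal components, Euclidean distance versus same-plate DMSO vehicle wells (0.1% v/v), median over six images per well.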
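Wherever surviving fraction (nuclei count normalised to DMSO) is given: nuclei counted by high-content imaging of Hoechst-stained cells in laminin-coated 384-well plates, relative to 0.1% DMSO vehicle wells, with staurosporine as cell-death control.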

O=C1CCc2cc(OCCCCc3nnnn3C3CCCCC3)ccc2N1 [Cilostazol]
Conditions | phenotypic distance | surviving fraction
E13 [5], 4.1 nM | – | 0.989
E13 [5], 12.3 nM | – | 1.04
E13 [5], 37 nM | – | 1.01
E13 [5], 111.1 nM | – | 0.931
E13 [5], 333.3 nM | – | 0.933
E13 [5], 1000 nM | – | 0.98
E13 [5], 3000 nM | – | 0.897
E13 [12], 4.1 nM | 0.5 | –
E13 [12], 12.3 nM | 0.664 | –
E13 [12], 37 nM | 1.06 | –
E13 [12], 111.1 nM | 0.612 | –
E13 [12], 333.3 nM | 0.287 | –
E13 [12], 1000 nM | 0.5 | –
E13 [12], 3000 nM | 0.553 | –
E21 [3], 4.1 nM | – | 0.933
E21 [3], 12.3 nM | – | 1.09
E21 [3], 37 nM | – | 1.03
E21 [3], 111.1 nM | – | 1.04
E21 [3], 333.3 nM | – | 0.973
E21 [3], 1000 nM | – | 0.949
E21 [3], 3000 nM | – | 0.934
E21 [10], 4.1 nM | 0.676 | –
E21 [10], 12.3 nM | 1.17 | –
E21 [10], 37 nM | 1.02 | –
E21 [10], 111.1 nM | 1.46 | –
E21 [10], 333.3 nM | 0.998 | –
E21 [10], 1000 nM | 1.13 | –
E21 [10], 3000 nM | 1.15 | –
E28 [7], 4.1 nM | – | 0.916
E28 [7], 12.3 nM | – | 1.13
E28 [7], 37 nM | – | 0.892
E28 [7], 111.1 nM | – | 1.2
E28 [7], 333.3 nM | – | 1.01
E28 [7], 1000 nM | – | 1.12
E28 [7], 3000 nM | – | 0.914
E28 [14], 4.1 nM | 0.648 | –
E28 [14], 12.3 nM | 0.777 | –
E28 [14], 37 nM | 0.65 | –
E28 [14], 111.1 nM | 1.01 | –
E28 [14], 333.3 nM | 1.82 | –
E28 [14], 1000 nM | 0.846 | –
E28 [14], 3000 nM | 0.458 | –
E31 [4], 4.1 nM | – | 0.919
E31 [4], 12.3 nM | – | 1.04
E31 [4], 37 nM | – | 0.905
E31 [4], 111.1 nM | – | 0.98
E31 [4], 333.3 nM | – | 0.963
E31 [4], 1000 nM | – | 0.832
E31 [4], 3000 nM | – | 0.832
E31 [11], 4.1 nM | 0.904 | –
E31 [11], 12.3 nM | 0.814 | –
E31 [11], 37 nM | 0.863 | –
E31 [11], 111.1 nM | 0.598 | –
E31 [11], 333.3 nM | 0.893 | –
E31 [11], 1000 nM | 0.881 | –
E31 [11], 3000 nM | 0.868 | –
E34 [6], 4.1 nM | – | 0.904
E34 [6], 12.3 nM | – | 1.1
E34 [6], 37 nM | – | 0.938
E34 [6], 111.1 nM | – | 0.937
E34 [6], 333.3 nM | – | 1.05
E34 [6], 1000 nM | – | 1.04
E34 [6], 3000 nM | – | 0.959
E34 [13], 4.1 nM | 0.293 | –
E34 [13], 12.3 nM | 0.701 | –
E34 [13], 37 nM | 0.573 | –
E34 [13], 111.1 nM | 1.28 | –
E34 [13], 333.3 nM | 0.55 | –
E34 [13], 1000 nM | 0.46 | –
E34 [13], 3000 nM | 0.733 | –
E57 [2], 4.1 nM | – | 0.991
E57 [2], 12.3 nM | – | 0.969
E57 [2], 37 nM | – | 0.975
E57 [2], 111.1 nM | – | 1.04
E57 [2], 333.3 nM | – | 0.91
E57 [2], 1000 nM | – | 0.839
E57 [2], 3000 nM | – | 0.817
E57 [9], 4.1 nM | 0.508 | –
E57 [9], 12.3 nM | 0.665 | –
E57 [9], 37 nM | 0.802 | –
E57 [9], 111.1 nM | 0.893 | –
E57 [9], 333.3 nM | 1.16 | –
E57 [9], 1000 nM | 1.49 | –
E57 [9], 3000 nM | 1.42 | –
FT3469 [1], 4.1 nM | – | 1.03
FT3469 [1], 12.3 nM | – | 1.03
FT3469 [1], 37 nM | – | 0.96
FT3469 [1], 111.1 nM | – | 1.02
FT3469 [1], 333.3 nM | – | 0.949
FT3469 [1], 1000 nM | – | 1.16
FT3469 [1], 3000 nM | – | 0.891
FT3469 [8], 4.1 nM | 0.483 | –
FT3469 [8], 12.3 nM | 0.448 | –
FT3469 [8], 37 nM | 0.352 | –
FT3469 [8], 111.1 nM | 0.643 | –
FT3469 [8], 333.3 nM | 3.23 | –
FT3469 [8], 1000 nM | 0.826 | –
FT3469 [8], 3000 nM | 0.541 | –

COc1ccc2c(c1)CC[C@@H]1[C@@H]2CC[C@]2(C)[C@@H](NCCCCCCN3C(=O)CCC3=O)CC[C@@H]12
Conditions | phenotypic distance | surviving fraction
E13 [5], 4.1 nM | – | 0.826
E13 [5], 12.3 nM | – | 0.95
E13 [5], 37 nM | – | 0.876
E13 [5], 111.1 nM | – | 0.929
E13 [5], 333.3 nM | – | 0.981
E13 [5], 1000 nM | – | 0.804
E13 [5], 3000 nM | – | 0.52
E13 [12], 4.1 nM | 1.07 | –
E13 [12], 12.3 nM | 0.714 | –
E13 [12], 37 nM | 0.93 | –
E13 [12], 111.1 nM | 1.11 | –
E13 [12], 333.3 nM | 1.31 | –
E13 [12], 1000 nM | 2.29 | –
E13 [12], 3000 nM | 3.72 | –
E21 [3], 4.1 nM | – | 1.03
E21 [3], 12.3 nM | – | 0.961
E21 [3], 37 nM | – | 0.951
E21 [3], 111.1 nM | – | 1.13
E21 [3], 333.3 nM | – | 1.06
E21 [3], 1000 nM | – | 0.867
E21 [3], 3000 nM | – | 0.645
E21 [10], 4.1 nM | 0.642 | –
E21 [10], 12.3 nM | 0.74 | –
E21 [10], 37 nM | 0.741 | –
E21 [10], 111.1 nM | 0.893 | –
E21 [10], 333.3 nM | 0.934 | –
E21 [10], 1000 nM | 1.42 | –
E21 [10], 3000 nM | 4.65 | –
E28 [7], 4.1 nM | – | 1.09
E28 [7], 12.3 nM | – | 1.03
E28 [7], 37 nM | – | 1.03
E28 [7], 111.1 nM | – | 1.09
E28 [7], 333.3 nM | – | 1.1
E28 [7], 1000 nM | – | 1.01
E28 [7], 3000 nM | – | 0.973
E28 [14], 4.1 nM | 0.61 | –
E28 [14], 12.3 nM | 0.49 | –
E28 [14], 37 nM | 0.46 | –
E28 [14], 111.1 nM | 0.724 | –
E28 [14], 333.3 nM | 0.645 | –
E28 [14], 1000 nM | 0.805 | –
E28 [14], 3000 nM | 2.44 | –
E31 [4], 4.1 nM | – | 0.965
E31 [4], 12.3 nM | – | 1.14
E31 [4], 37 nM | – | 0.985
E31 [4], 111.1 nM | – | 1.05
E31 [4], 333.3 nM | – | 1.06
E31 [4], 1000 nM | – | 0.962
E31 [4], 3000 nM | – | 0.624
E31 [11], 4.1 nM | 0.697 | –
E31 [11], 12.3 nM | 0.31 | –
E31 [11], 37 nM | 0.566 | –
E31 [11], 111.1 nM | 0.735 | –
E31 [11], 333.3 nM | 1.61 | –
E31 [11], 1000 nM | 2.54 | –
E31 [11], 3000 nM | 6.23 | –
E34 [6], 4.1 nM | – | 0.876
E34 [6], 12.3 nM | – | 0.901
E34 [6], 37 nM | – | 1.13
E34 [6], 111.1 nM | – | 0.957
E34 [6], 333.3 nM | – | 0.939
E34 [6], 1000 nM | – | 0.979
E34 [6], 3000 nM | – | 0.986
E34 [13], 4.1 nM | 1.13 | –
E34 [13], 12.3 nM | 0.657 | –
E34 [13], 37 nM | 0.637 | –
E34 [13], 111.1 nM | 0.671 | –
E34 [13], 333.3 nM | 0.968 | –
E34 [13], 1000 nM | 1.06 | –
E34 [13], 3000 nM | 0.95 | –
E57 [2], 4.1 nM | – | 1.11
E57 [2], 12.3 nM | – | 1.04
E57 [2], 37 nM | – | 1.13
E57 [2], 111.1 nM | – | 1.13
E57 [2], 333.3 nM | – | 1.17
E57 [2], 1000 nM | – | 1.11
E57 [2], 3000 nM | – | 0.936
E57 [9], 4.1 nM | 3.52 | –
E57 [9], 12.3 nM | 0.302 | –
E57 [9], 37 nM | 0.424 | –
E57 [9], 111.1 nM | 0.621 | –
E57 [9], 333.3 nM | 1.22 | –
E57 [9], 1000 nM | 1.78 | –
E57 [9], 3000 nM | 2.68 | –
FT3469 [1], 4.1 nM | – | 0.984
FT3469 [1], 12.3 nM | – | 1.11
FT3469 [1], 37 nM | – | 1.03
FT3469 [1], 111.1 nM | – | 1.11
FT3469 [1], 333.3 nM | – | 1.06
FT3469 [1], 1000 nM | – | 0.922
FT3469 [1], 3000 nM | – | 0.983
FT3469 [8], 4.1 nM | 0.686 | –
FT3469 [8], 12.3 nM | 0.245 | –
FT3469 [8], 37 nM | 0.58 | –
FT3469 [8], 111.1 nM | 0.496 | –
FT3469 [8], 333.3 nM | 0.408 | –
FT3469 [8], 1000 nM | 0.646 | –
FT3469 [8], 3000 nM | 0.711 | –
